From publication PMC9863764, “Roles of Human Liver Cytochrome P450 Enzymes in Tenatoprazole Metabolism” (Pharmaceutics, 2022)
Values joined by “and” are separate entries in the source; they are usually repeats but may differ in a detail not shown here. Equal entries are not always repeated.

Legend:
Format in all cases: in vitro ADME
CYP1B1 = target: T1, CYP1B1 (Homo sapiens, UniProt Q16678); test: Tenatoprazole oxidation by recombinant CYP1B1; details: substrate tenatoprazole 0.10 mM, 0.20 μM CYP1B1; no apparent formation
T1 construct: made in house; host or cells: Escherichia coli (membrane fractions)
T1 sequence (Q16678 1-543): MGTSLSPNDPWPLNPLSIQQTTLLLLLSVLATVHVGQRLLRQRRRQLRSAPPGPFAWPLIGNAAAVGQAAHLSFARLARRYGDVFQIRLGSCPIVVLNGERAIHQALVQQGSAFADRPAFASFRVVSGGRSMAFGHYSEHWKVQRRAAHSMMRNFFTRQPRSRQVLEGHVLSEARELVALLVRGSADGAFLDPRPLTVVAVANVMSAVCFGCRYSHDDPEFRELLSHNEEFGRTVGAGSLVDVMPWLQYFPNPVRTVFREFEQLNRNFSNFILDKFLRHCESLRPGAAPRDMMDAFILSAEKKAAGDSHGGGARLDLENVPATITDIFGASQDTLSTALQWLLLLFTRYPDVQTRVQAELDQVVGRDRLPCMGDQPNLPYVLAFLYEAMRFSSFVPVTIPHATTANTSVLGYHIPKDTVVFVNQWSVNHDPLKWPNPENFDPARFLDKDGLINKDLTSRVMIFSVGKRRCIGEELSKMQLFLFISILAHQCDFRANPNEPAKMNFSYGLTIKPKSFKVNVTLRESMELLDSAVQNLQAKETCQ
Experimental: (§1) Pooled liver microsomes from human samples were obtained from ThermoFisher Scientific (Waltham, MA, USA). Recombinant human P450s were heterologously expressed in Escherichia coli with a pCW vector containing human P450 cDNA (CYP 3A4, 2C9, 2C19, 1A2, 1B1, 2E1, 2D6, and 2A6) and rat NADPH-P450 reductase (CPR). Membrane fractions expressing both P450 and CPR of E. coli were prepared as described previously and were used for the catalytic activity assays.
(§2) The reaction mixture included 0.20 μM P450, 0.40 μM CPR, and tenatoprazole (0.10 mM) in 0.25 mL of 0.10 M potassium phosphate buffer (pH 7.4). The reaction was started by adding NGS and the incubation was continued for the indicated time at 37 °C. Incubation was then stopped by adding ice-chilled ethyl acetate (0.50 mL) and omeprazole (IS) was added to a final concentration of 20 μM. The mixtures were vortexed for 2 min, centrifuged at 1000× g for 20 min, and then the organic layer was taken for drying under nitrogen gas stream. The residues were dissolved in 180 μL of HPLC mobile phase and 30 μL was injected onto a Gemini C18 column (4.6 × 150 mm, 5 μm; Phenomenex, Torrance, CA, USA). The products formed were analyzed by HPLC at A302. The HPLC profile of the authentic chemicals (i.e., tenatoprazole, tenatoprazole sulfide, and their metabolites) were used to identify the major metabolites of tenatoprazole and tenatoprazole sulfide produced by the recombinant P450s.
(§3) Figure S6. HPLC analyses of the products derived from the oxidation of tenatoprazole catalyzed by recombinant human P450s. The reaction mixture included 0.20 μM P450, 0.40 μM CPR, and 0.10 mM tenatoprazole in 0.25 mL of potassium phosphate buffer (0.10 M, pH 7.4). The reaction was started by adding an NGS at 37 °C for 60 min. (A) CYP1A2; (B) CYP1B1; (C) CYP2A6; (D) CYP2C9; (E) CYP2D6; (F) CYP2E1. The arrows with solid and broken lines indicate the retention times of 5’-OH tenatoprazole (6.6 min) and 5’-OH tenatoprazole sulfide (8.4 min), respectively.
(§4) (1 picture or pasted object on this page, not shown here)

CYP2D6 = target: T2, CYP2D6 (Homo sapiens, UniProt P10635); test: Tenatoprazole oxidation by recombinant CYP2D6; details: substrate tenatoprazole 0.10 mM, 0.20 μM CYP2D6
T2 construct: made in house; host or cells: Escherichia coli (membrane fractions)
Experimental: as §1
as §2, with “The HPLC profile of the authentic chemicals (i.e., tenatoprazole, tenatoprazole sulfide, and their metabolites) were used to identify the major metabolites of tenatoprazole and tenatoprazole sulfide produced by the recombinant P450s.” left out

human CYP2C19 = target: T3, human CYP2C19 (Homo sapiens, UniProt P33261); test: Steady-state kinetics of tenatoprazole oxidation by recombinant CYP2C19
T3 construct: made in house; host or cells: Escherichia coli (membrane fractions)
Experimental: Pooled liver microsomes from human samples were obtained from ThermoFisher Scientific (Waltham, MA, USA). […] Membrane fractions expressing both P450 and CPR of E. coli were prepared as described previously and were used for the catalytic activity assays. […] The reaction was started by adding NGS and the incubation was continued for the indicated time at 37 °C. Incubation was then stopped by adding ice-chilled ethyl acetate (0.50 mL) and omeprazole (IS) was added to a final concentration of 20 μM. […] Phenomenex, Torrance, CA, USA). The products formed were analyzed by HPLC at […]. […] The kinetic parameters (kcat and Km) were determined by using a Michaelis-Menten nonlinear regression analysis with GraphPad Prism (GraphPad Software, San Diego, CA, USA).

CYP2A6 = target: T4, CYP2A6 (Homo sapiens, UniProt P11509); test: Tenatoprazole oxidation by recombinant CYP2A6; details: substrate tenatoprazole 0.10 mM, 0.20 μM CYP2A6; no apparent formation
T4 construct: made in house; host or cells: Escherichia coli (membrane fractions)
T4 sequence (P11509 1-494): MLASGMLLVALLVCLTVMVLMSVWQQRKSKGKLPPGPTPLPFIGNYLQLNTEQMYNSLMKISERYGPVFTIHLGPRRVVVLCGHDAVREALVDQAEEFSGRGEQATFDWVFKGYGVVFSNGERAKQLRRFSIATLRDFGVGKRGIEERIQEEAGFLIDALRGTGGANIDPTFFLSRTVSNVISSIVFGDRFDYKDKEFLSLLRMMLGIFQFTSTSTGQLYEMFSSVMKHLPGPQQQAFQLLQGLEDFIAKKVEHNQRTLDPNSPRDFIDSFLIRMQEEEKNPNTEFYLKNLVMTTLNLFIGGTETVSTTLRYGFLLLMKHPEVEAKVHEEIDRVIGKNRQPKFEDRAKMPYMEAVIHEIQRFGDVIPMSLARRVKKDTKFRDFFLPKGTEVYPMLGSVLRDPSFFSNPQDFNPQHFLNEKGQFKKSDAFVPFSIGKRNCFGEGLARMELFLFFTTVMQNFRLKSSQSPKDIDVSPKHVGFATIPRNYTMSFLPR
Experimental: as §1, §2, §3, §4

CYP2E1 = target: T5, CYP2E1 (Homo sapiens, UniProt P05181); test: Tenatoprazole oxidation by recombinant CYP2E1; details: substrate tenatoprazole 0.10 mM, 0.20 μM CYP2E1; no apparent formation
T5 construct: made in house; host or cells: Escherichia coli (membrane fractions)
Experimental: as §1, §2, §3, §4

CYP2C9 = target: T6, CYP2C9 (Homo sapiens, UniProt P11712); test: Tenatoprazole oxidation by recombinant CYP2C9; details: substrate tenatoprazole 0.10 mM, 0.20 μM CYP2C9
T6 construct: made in house; host or cells: Escherichia coli (membrane fractions)
Experimental: as §1
as §2, with “The HPLC profile of the authentic chemicals (i.e., tenatoprazole, tenatoprazole sulfide, and their metabolites) were used to identify the major metabolites of tenatoprazole and tenatoprazole sulfide produced by the recombinant P450s.” left out

T3 sequence (P33261 whole entry): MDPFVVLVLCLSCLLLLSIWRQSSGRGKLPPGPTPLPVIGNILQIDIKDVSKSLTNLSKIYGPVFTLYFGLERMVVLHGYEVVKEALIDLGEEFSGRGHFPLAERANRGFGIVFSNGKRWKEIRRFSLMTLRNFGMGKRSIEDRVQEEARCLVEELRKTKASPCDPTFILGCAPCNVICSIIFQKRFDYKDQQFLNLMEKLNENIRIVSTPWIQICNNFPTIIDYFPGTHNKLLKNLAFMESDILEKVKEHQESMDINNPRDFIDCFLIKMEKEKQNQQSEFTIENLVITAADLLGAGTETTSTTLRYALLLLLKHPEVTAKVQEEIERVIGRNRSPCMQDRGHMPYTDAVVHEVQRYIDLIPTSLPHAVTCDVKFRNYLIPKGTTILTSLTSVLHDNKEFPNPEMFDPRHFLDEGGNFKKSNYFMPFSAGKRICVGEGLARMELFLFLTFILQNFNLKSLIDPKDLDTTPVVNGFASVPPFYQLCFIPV
T5 sequence (P05181 whole entry): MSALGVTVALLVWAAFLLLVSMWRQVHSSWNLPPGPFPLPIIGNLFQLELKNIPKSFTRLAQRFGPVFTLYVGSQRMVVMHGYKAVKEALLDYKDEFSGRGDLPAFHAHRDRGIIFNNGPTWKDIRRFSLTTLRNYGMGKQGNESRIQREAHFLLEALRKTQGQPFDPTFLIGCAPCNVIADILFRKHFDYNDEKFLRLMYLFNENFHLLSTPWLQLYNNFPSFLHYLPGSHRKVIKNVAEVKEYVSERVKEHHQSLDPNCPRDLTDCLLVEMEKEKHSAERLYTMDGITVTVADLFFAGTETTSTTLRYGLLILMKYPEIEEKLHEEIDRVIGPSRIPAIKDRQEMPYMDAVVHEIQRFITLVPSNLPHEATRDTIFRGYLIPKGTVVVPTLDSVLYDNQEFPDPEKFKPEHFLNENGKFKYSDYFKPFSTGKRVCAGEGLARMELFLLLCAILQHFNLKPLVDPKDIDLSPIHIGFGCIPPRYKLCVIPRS
T2 sequence (P10635 whole entry): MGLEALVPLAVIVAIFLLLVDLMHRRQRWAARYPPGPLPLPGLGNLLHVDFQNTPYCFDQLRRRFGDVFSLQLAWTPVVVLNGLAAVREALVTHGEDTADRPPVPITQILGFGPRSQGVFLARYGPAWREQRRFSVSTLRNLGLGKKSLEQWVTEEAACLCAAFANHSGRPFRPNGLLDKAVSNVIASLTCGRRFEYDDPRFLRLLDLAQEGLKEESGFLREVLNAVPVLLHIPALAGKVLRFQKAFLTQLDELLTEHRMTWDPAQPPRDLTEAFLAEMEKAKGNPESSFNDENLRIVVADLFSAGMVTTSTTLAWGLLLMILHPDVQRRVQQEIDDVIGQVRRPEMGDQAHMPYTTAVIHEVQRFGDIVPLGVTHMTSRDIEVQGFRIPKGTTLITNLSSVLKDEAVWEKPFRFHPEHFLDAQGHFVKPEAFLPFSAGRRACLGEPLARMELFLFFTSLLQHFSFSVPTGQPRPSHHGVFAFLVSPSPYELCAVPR
T6 sequence (P11712 whole entry): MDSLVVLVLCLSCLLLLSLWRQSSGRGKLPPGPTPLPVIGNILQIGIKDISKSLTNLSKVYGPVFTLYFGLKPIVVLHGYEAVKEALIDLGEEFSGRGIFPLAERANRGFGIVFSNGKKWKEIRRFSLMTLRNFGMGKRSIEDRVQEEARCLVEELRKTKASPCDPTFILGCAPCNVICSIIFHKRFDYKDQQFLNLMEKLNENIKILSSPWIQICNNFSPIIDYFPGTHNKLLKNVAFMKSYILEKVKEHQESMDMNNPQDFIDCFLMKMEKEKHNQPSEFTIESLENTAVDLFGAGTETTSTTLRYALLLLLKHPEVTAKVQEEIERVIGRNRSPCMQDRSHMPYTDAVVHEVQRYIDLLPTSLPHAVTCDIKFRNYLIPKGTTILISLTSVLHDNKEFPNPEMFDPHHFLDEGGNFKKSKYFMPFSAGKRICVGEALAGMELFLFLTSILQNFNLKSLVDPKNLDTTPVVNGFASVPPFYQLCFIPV

SMILES	formation rate of metabolite (CYP1B1)	formation rate of metabolite (CYP2D6)	fold higher catalytic efficiency of CYP2C19 than CYP3A4 (human CYP2C19; 5′-OH tenatoprazole formation from tenatoprazole)	kcat of product formation (human CYP2C19; substrate tenatoprazole (1–500 μM), recombinant CYP2C19 0.20 μM, 37 °C, 5 min, label = product formed)	formation rate of metabolite (CYP2A6)	formation rate of metabolite (CYP2E1)	formation rate of metabolite (CYP2C9)
COc1ccc2[nH]c([S+]([O-])Cc3ncc(CO)c(OC)c3C)nc2n1 (stereo not shown) [5′-OH tenatoprazole, 5′-hydroxy tenatoprazole]	< 0.05 nmol product/min/nmol P450	0.1 min⁻¹	63 fold	0.0667 s⁻¹ and 0.0667 ± 0.0033 s⁻¹	< 0.05 nmol product/min/nmol P450	< 0.05 nmol product/min/nmol P450	0.1 min⁻¹
COc1ccc2[nH]c(S(=O)(=O)Cc3ncc(C)c(OC)c3C)nc2n1 [tenatoprazole sulfone]	< 0.05 nmol product/min/nmol P450				< 0.05 nmol product/min/nmol P450	< 0.05 nmol product/min/nmol P450	
